According to patent US20060281807A1, “Quassinoid compositions for the treatment of cancer and other proliferative diseases” (Tapestry Pharmaceuticals, Inc., priority 2005, published 2006):
Values after ≈ are worked out from the molar mass of the structure shown. Values joined by “and” are separate entries in the source; they are usually repeats but may differ in a detail not shown here. Identical values can stand only once. Like-named read-outs stand apart in the source and are kept apart here.

Columns and labels:
[1] = tested on: Colon 38 (murine colon adenocarcinoma); test: Disk diffusion assay, zone of inhibition, Colon 38; zone differentials, potency and product; type: cell-based; design: key to C38ΔL1210 / C38ΔCFU: difference of zone of inhibition values, in zone units; conditions: for Sum: C38ΔL1210 plus C38ΔCFU; for C38ΔL1210 / C38ΔCFU: difference between zone of inhibition values; for C38ΔL1210: Colon38 vs L1210 leukemia; for C38ΔCFU: Colon38 vs normal cell CFU-GM; for Product: potency multiplied by zone differentials; for zone of inhibition, Colon 38: 1 mg/mL
Outline: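 Dissociated Colon 38 cells were plated in soft agar over a hard agar layer; 15 µl of compound dilution dried on a 6.5 mm disk was placed on the plate, and incubation ran 7–10 days. Inhibition zone was measured from disk edge to normal colonies, with the disk diameter = 200 units. Potency = dilution giving 500 units; the product multiplies it by the differentials against L1210 or CFU-GM.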

[2] = tested on: WiDr; test: MTT cytotoxicity assay (% kill), WiDr; type: cell-based, human; conditions: 1 h exposure
Description: (§1) The following human tumor cell lines were obtained and cultured in sextuplicate microwells at 37° C. and 5% CO2 in humidified air and in 10% FBS in Eagles MEM: SK—N—FI, SK—N-AS, LS-174T, WiDr, HuTu-80, MCF7, NCI-AR, MES-Sar, and PL-45. Cells from each cell line were separately treated with an amount of one of the compounds of Formula I, II, or III (see Table 1). Cells were exposed to each compound (0.1 μg/mL or 1.0 μg/mL) for one hour or 24 hours, rinsed with drug-free media, and incubated for an additional five days. The number of viable cells after five days was measured using an MTT (3-(4,5-dimethylthiazol-2-yl)-2,5-diphenyltetrazolium bromide) assay (see, e.g., Mosmann, J. Immunol. Methods, 65(1-2), 55-63 (1983)).
(§2) The cytotoxicity of each drug was determined and expressed as the percent of cells killed (“% kill”).

[3] = tested on: LS-174T; test: MTT cytotoxicity assay (% kill), LS-174T; type: cell-based, human; conditions: 1 h exposure, MTT after five days
Description: as §1, §2

[4] = tested on: NCI-AR; test: MTT cytotoxicity assay (% kill), NCI-AR; type: cell-based, human; conditions: 1 h exposure
Description: as §1, §2

[5] = tested on: MES-Sar; test: MTT cytotoxicity assay (% kill), MES-Sar; type: cell-based, human; conditions: 1 h exposure
Description: as §1, §2

[6] = tested on: SK-N-AS; test: MTT cytotoxicity assay (% kill), SK-N-AS; type: cell-based, human; conditions: MTT after five days
Description: as §1, §2

[7] = tested on: CCRF-CEM (human leukemia); test: Disk diffusion assay, zone of inhibition, CCRF-CEM; type: cell-based; conditions: 1 mg/mL, dilution 1/100
Description: (§3) A disk diffusion assay was performed to define the differential cell killing ability of 15-O-(3′-hydroxy-3′-isopropyl-4′-methylpentanoyl)bruceolide. Seven cell types were assayed: L1210 (ATCC CCL-219) (murine leukemia), CCRF-CEM (ATCC CCL-119) (human leukemia), Colon 38 (murine colon adenocarcinoma), HCT116 (ATCC CCL-247) (human colorectal carcinoma), H125 (human lung carcinoma). The murine and human granulocyte/macrophage progenitor cell line (CFU-GM), served as controls.
(§4) Colon 38 cells (about 1 gram) were cut into small fragments in 15 mL of Hank's Balanced Salt Solution (HBSS) over a 100-mesh sieve and gently forced through by the scissors with HBSS constantly perfusing the sieve. The resulting material was then drawn into and out of a 5 mL syringe without a needle to further disperse the cell clumps. The cell solution was diluted and plated in 0.3% agarose in DMEM plus 10% heat-inactivated Bovine Calf Serum (BCS). For plating of all of the cell types (except controls), the 60 mm plates were first prepared with a hard agar bottom layer (0.6% agar in RPMI-1640 plus 15% BCS).
(§5) A 15 μl sample of each compound was dropped onto a 6.5 mm disk (Baxter filter disks). The disks were allowed to dry overnight and then placed close to the edge of a petri dish. Depending upon the cell type, the dishes were incubated for 7 to 10 days, and examined by an inverted stereo-microscope (10×) for measurement of the zone of inhibition. The zone of inhibition was measured from the edge of the filter disk to the beginning of normal-sized colony formation. The diameter of the filter disk, 6.5 mm, was arbitrarily taken as a zone of 200 units. Compounds that were selective for killing solid tumors, as compared to leukemia or normal cells (“solid tumor selective”) were defined as those compounds which produced a difference in zones between solid tumor cells and either normal or leukemia cells of at least 250 units. The results of this analysis are set forth in Table 4, which illustrates the relative diameters of the zones of inhibition by various drugs on the growth of the respective cell types at various drug dilutions.

[8] = tested on: L1210 (murine leukemia); test: Disk diffusion assay, zone of inhibition, L1210; type: cell-based; conditions: 1 mg/mL
Description: as §3, §4, §5

[9] = tested on: murine CFU-GM; test: Disk diffusion assay, zone of inhibition, murine CFU-GM; type: cell-based; conditions: 1 mg/mL
Description: as §3
(§6) For CFU-GM cells, the femoral marrow of BD2F1 mice was flushed with MEM alpha (2 mL per femur). The cells were passed through an 18 gauge needle twice and the monodispersed suspension was counted. A total of 1.5×10^6 cells were plated in 3 mL of 0.3% agar with the addition of 10% L cell conditioned media, which provided colony stimulating factor, in MEM-alpha plus 10% BCS. For human CFU-GM, the cells were obtained from Poietic Technologies, Inc. (Gaithersburg, Md.) and washed twice with PBS before being titered and added to the agar mixture. The same cell number, culture conditions, and conditioning factors used with respect to the murine CFU-GM cells were used with the human cells, except that the cultures were assessed after 10 days of incubation.
as §5

[10] = tested on: HCT-116 cells; test: HCT-116 cytotoxicity, viable cell count by trypan blue; type: cell-based, human
[11] = tested on: human CFU-GM; type: cell-based; conditions: 1 mg/mL
Description: as §3, §6, §5

[12] = tested on: HCT116 (human colorectal carcinoma); test: Disk diffusion assay, zone of inhibition, HCT116; type: cell-based; conditions: 1 mg/mL
Description: as §3, §4
(§7) HCT116 and H125 cells were maintained in cell culture, and were removed from culture by a trypsin-collagenase-DNAase cocktail. The plating efficiencies of each cell type was sufficiently high that 30,000 cells in 3 mL produced the desired number of colonies (i.e., over 10,000 per plate) in 60 mm plates. This soft agar top layer (0.3% with the serum and media as above) plus the titrated tumor cells were poured into the plates and allowed to solidify.
as §5

[13] = Maximum tolerated dose in mice; conditions: first stage, one mouse per dose
Description: Formulations containing 15-O-(3′-hydroxy-3′-isopropyl-4′-methylpentanoyl)bruceolide, 15-(3-isopropyl-4-methyl-2-pentenoyl)-bruceolide, and, for comparative purposes, bruceantin, or peninsularinone were prepared by solubilizing each compound in up to 100 mg/mL of ethanol. These solutions were diluted 1:1 with a stabilizer (Cremophor/propylene glycol). The solutions were then diluted in saline (1:10 minimum).
The maximum tolerated dose (MTD) was determined by a two-stage experiment. In the first stage, between 1 and 10 mg/mL of the formulation was prepared as described above. Next, 0.25 mL of the formulation was injected intravenously into one 20 gram mouse (0.75 mg/mouse). If the animal died within 30 days of injection, a series of subsequent 2-fold dilutions were administered to individual mice until an MTD was defined. […] The second stage of the study involved increasing the number of mice per dose to four, and retesting four dilutions that bracket the MTD from the individual mouse study. The four dilutions were the MTD, a dosage twice the MTD, a dosage ½ the MTD, and a dosage ¼ the MTD.

[14] = tested on: HCT-116 cells; test: Clonogenic assay, HCT-116; type: cell-based, human; conditions: colonies at 7 days
Description: A clonogenic assay was performed using HCT-116 cells. Specifically, HCT-116 cells were seeded at 200 to 20,000 cells in 60 mm dishes. […] At either 2 hours or 24 hours following drug administration, the drug-containing media was removed, and fresh media without drug was added. In addition, one group of cells was subjected to continuous drug exposure for the entire incubation period. The dishes were incubated for 7 days (at 37° C. and 5% CO2), media was removed, and the colonies were stained with methylene blue. Colonies containing 50 cells or more were counted. The results were normalized to an untreated control. Plating efficiency for the untreated cells was about 90%. Repeat experiments also were carried out to define the cell survival range between 1 (100%) and 10^−3 (0.1%) survival. A survival rate of 10^−1 was chosen as the minimal level that would be required in vivo to achieve therapeutic efficacy against HCT-116 cells in tumor-bearing mice. The clonogenic dose response to 15-O-(3′-hydroxy-3′-isopropyl-4′-methylpentanoyl)bruceolide is illustrated in FIG. 4. The clonogenic dose response to 15-(3-isopropyl-4-methyl-2-pentenoyl)-bruceolide is illustrated in FIG. 5.

[15] = tested on: H125 (human lung carcinoma); test: Disk diffusion assay, zone of inhibition, H125; type: cell-based; conditions: 1 mg/mL
Description: as §3, §4, §7, §5

[16] = no dilution, 15 μl on disk, 6.5 mm = 200 units

## CCC(O)(CC(=O)OC1C(=O)OC2CC3C(C)=C(O)C(=O)CC3(C)C3C(O)C(O)C4(C(=O)OC)OCC23C14)C(C)C (mixture of isomers) [(+/−)-15-O-(3′-ethyl-3′-hydroxy-4′-methyl)-bruceolide]
[1]
  Sum: 1150
  C38ΔL1210: 600
  C38ΔCFU: 550
  Product: 3450
[2]; 0.1 μg/mL
  % kill, WiDr: 0%
[2]; 1.0 μg/mL
  % kill, WiDr: 0%
[3]; 0.1 μg/mL
  % Kill, LS-174T: 0%
[3]; 1.0 μg/mL
  % Kill, LS-174T: 0%
[4]; 0.1 μg/mL
  % kill, NCI-AR: 0%
[4]; 1.0 μg/mL
  % kill, NCI-AR: 0%
[5]; 0.1 μg/mL
  % kill, MES Sar: 0%
[5]; 1.0 μg/mL
  % kill, MES Sar: 0%
[6]; 0.1 μg/mL, 1 h exposure
  % Kill, SK-N-AS: 0%
[6]; 0.1 μg/mL, 24 h exposure
  % Kill, SK-N-AS: 0%
[6]; 1.0 μg/mL, 1 h exposure
  % Kill, SK-N-AS: 0%
[6]; 1.0 μg/mL, 24 h exposure
  % Kill, SK-N-AS: 0%

## COC(=O)[C@@]12OC[C@]34[C@H]([C@@H](O)[C@@H]1O)[C@@]1(C)CC(=O)C(O)=C(C)[C@@H]1C[C@H]3OC(=O)[C@H](OC(=O)/C=C(\C)C(C)C)[C@@H]24 [Bruceantin, bruceantin]
[1]; dilution 1/10
  zone of inhibition, Colon 38: >1000 units
[1]; dilution 1/100
  zone of inhibition, Colon 38: 600 units and 1000 units
[1]; dilution 1/1000
  zone of inhibition, Colon 38: 600 units and 450 units
[1]; [16]
  zone of inhibition, Colon 38: >1000 units
[1]
  Sum: 1050
  C38ΔL1210: 500
  C38ΔCFU: 550
  Product: 6300
[7]
  zone of inhibition, CEM: 450 units
[8]; dilution 1/10
  zone of inhibition, L1210: 1000 units
[8]; [16]
  zone of inhibition, L1210: >1000 units
[9]; dilution 1/10
  zone of inhibition, murine CFU-GM: 550 units
[9]; dilution 1/100
  zone of inhibition, murine CFU-GM: 150 units and 200 units
[9]; dilution 1/1000
  zone of inhibition, murine CFU-GM: 0 units
[10]; HCT-116
  IC90/IC50: 6,700
[10]; Homo sapiens, 72 h, HCT-116, 3 days with compound, viable cells, by interpolation, read-out: IC50
  IC50: 1.5 ng/mL (≈ 0.00273 µM)
[10]; Homo sapiens, 72 h, HCT-116, 3 days with compound, viable cells, by interpolation, read-out: IC90
  IC90: 10 µg/mL (≈ 18.2 µM)
[11]; dilution 1/10
  zone of inhibition, human CFU-GM: >1000 units
[11]; dilution 1/100
  zone of inhibition, human CFU-GM: 650 units
[12]; dilution 1/10
  zone of inhibition, H-116: 1000 units
[12]; dilution 1/100
  zone of inhibition, H-116: 400 units
[12]; dilution 1/1000
  zone of inhibition, H-116: 0 units
[12]; [16]
  zone of inhibition, H-116: >1000 units
[13]; intravenous
  maximum tolerated dose, Dose - 1 Mouse: 0.1 mg/mouse
[13]; mouse, in vivo, iv, maximum tolerated dose, Dose - 1 Mouse
  MTD: 5.4 mg/kg
[14]; HCT-116, 2 Hour Exposure
  Concentration Required for 10^−1 Survival Fraction: >10 μg/mL
[14]; HCT-116, 24 Hour Exposure
  Concentration Required for 10^−1 Survival Fraction: >10 μg/mL
[14]; HCT-116, Continuous Exposure
  Concentration Required for 10^−1 Survival Fraction: 2 × 10^−3 μg/mL
[15]; dilution 1/10
  zone of inhibition, H-125 M: >1000 units
[15]; dilution 1/100
  zone of inhibition, H-125 M: 600 units
[15]; dilution 1/1000
  zone of inhibition, H-125 M: 100 units
[15]; [16]
  zone of inhibition, H-125 M: >1000 units
